The record followed here is the Deep4Chem optical property database.

SMILES strings stand for the structures.

This data set can be described thus: photoluminescence quantum yield (fraction); solvent given as SMILES.

For the compound `CN(C)c1ccc(C2=C3C=C(c4ccc(C#N)cc4)S[C@]34c3ccccc3[C@H]2c2ccccc24)cc1`, the photoluminescence quantum yield (in ClCCl) came out at 0.76.
`O=C([O-])c1ccccc1-c1c2ccc(=O)cc-2oc2cc([O-])ccc12` registered a photoluminescence quantum yield (in O) of 0.95.
For the compound `CCOC(=O)c1cc(C(=O)OCC)c2c(C)ccc(OC(=O)OC(C)(C)C)c2n1`, under “in CCO”, the photoluminescence quantum yield was found to be 0.22.
As to `O=Cc1ccc(-c2ccc(-c3nc4ccccc4s3)c(O)c2)s1`, the photoluminescence quantum yield was 0.0424 (in CCO), 0.0634 (in ClCCl) and 0.07 (in O).
As to `CC1=[N+]2C(=C(c3ccc(N(C)C)cc3)c3ccc(C)n3[B-]2(F)F)C=C1`, the photoluminescence quantum yield runs as follows: (in C1CCCCC1) 0.37; (in CC#N) 0.008; (in CC(=O)C(C)(C)C) 0.024; (in CC(C)=O) 0.006; (in CCCCCC) 0.376; (in CO) 0.03. In addition, the photoluminescence quantum yield is 0.15 (in Cc1ccccc1) and 0.058 (in ClC(Cl)Cl).
For the setting “in CCO”, `C#Cc1ccc2cc3c(C)cc(=O)oc3cc2c1` showed a photoluminescence quantum yield of 0.01.
In turn, `Cc1ccccc1C1=C2C=CC(=[N+](C)C)C=C2[Si](C)(C)c2cc(N(C)C)ccc21` returned a photoluminescence quantum yield (in O) of 0.31.
Where the note is “in CC#N”, `CCCCCCCC[n+]1ccc(-c2cc[n+](CCCCCCCC)cc2)cc1` displayed a photoluminescence quantum yield of 0.009.
Consider `F[B-]1(F)n2ccnc2-c2cccc[n+]21`, for which the photoluminescence quantum yield by setting is: (in C1CCCCC1) 0.03; (in C1CCOC1) 0.44; (in C1COCCO1) 0.28; (in CC#N) 0.28; (in CCCCCC) 0.03; (in CO) 0.03. The photoluminescence quantum yield (in ClC(Cl)Cl) is 0.14.
Compound `C1=Cc2ccc3ccccc3c2N(c2ccccc2)B1c1ccccc1` returned a photoluminescence quantum yield (in C1CCCCC1) of 0.04.
`O=c1cc2cc(O)c3cccc4ccc(o1)c2c43` showed a photoluminescence quantum yield (in CC1CCCO1) of 0.35.
In turn, `COc1cccc(-c2nc3sc4ccccc4c3s2)c1` showed a photoluminescence quantum yield (in CS(C)=O) of 0.62.
As for `Oc1ccc(-c2ccco2)cc1-c1nc2ccccc2s1`, the photoluminescence quantum yield was found to be 0.0588 (in CCO), 0.0292 (in ClCCl) and 0.07 (in O).
Compound `CC1(C)C(/C=C/C=C/C=C/C=C2/N(S(=O)(=O)[O-])c3ccc(S(=O)(=O)[O-])cc3C2(C)C)=[N+](S(=O)(=O)[O-])c2ccc(S(=O)(=O)[O-])cc21` returned a photoluminescence quantum yield (in CO) of 0.55 and a photoluminescence quantum yield (in O) of 0.29.
`Cc1ccc(C#Cc2c3cc4ccccc4cc3c(C#C[Si](C(C)C)(C(C)C)C(C)C)c3cc4ccccc4cc23)cc1`: the photoluminescence quantum yield (in ClCCl) came to 0.1.
As for `N#Cc1nc(N(Cc2ccccc2F)Cc2ccccc2F)c(C#N)nc1N(Cc1ccccc1F)Cc1ccccc1F`, the photoluminescence quantum yield (in ClC(Cl)Cl) came to 0.79.
On to `C(#Cc1cc(C#Cc2ccccc2)c(C#Cc2ccccc2)c(C#Cc2ccccc2)c1C#Cc1ccccc1)c1ccccc1`, for which the photoluminescence quantum yield (in ClCCl) was 0.26.
Turning to `O=C1c2ccc(-c3ccc(N(c4ccc(-c5ccccc5)cc4)c4ccc(-c5ccccc5)cc4)cc3)cc2C(=O)c2ccc(-c3ccc(N(c4ccc(-c5ccccc5)cc4)c4ccc(-c5ccccc5)cc4)cc3)cc21`, the photoluminescence quantum yield worked out at 0.62 (in Cc1ccccc1) and 0.76 (in c1ccc2c(c1)c1ccccc1n2-c1ccc(-c2ccc(-n3c4ccccc4c4ccccc43)cc2)cc1).
Where the note is “in CS(C)=O”, `CCCCCCCCn1c2ccccc2c(=O)c2ccccc21` showed a photoluminescence quantum yield of 0.66.
Regarding `CCCCCCc1ccc(-n2c3[n+](c4c5ccccc5c5ccccc5c42)[B-](C)(C)c2ccc4ccccc4c2-3)cc1`, the photoluminescence quantum yield is, setting by setting: (in C1CCOC1) 0.11; (in CC#N) 0.07; (in Cc1ccccc1) 0.16; (in ClCCl) 0.08.
In turn, `Cc1cccc2c1nc1c(=O)n(C)c(=O)nc-1n2C` registered a photoluminescence quantum yield (in CC#N) of 0.14.
In the case of `c1ccc2c(c1)c1ccccc1c1[nH]c(-c3ccc(-c4nc5c6ccccc6c6ccccc6c5[nH]4)cc3)nc21`, the photoluminescence quantum yield turned out to be 0.79 (in C1CCOC1); 0.76 (in CC#N); 0.77 (in CCO); 0.78 (in CS(C)=O); 0.76 (in ClCCl).
Under “in CCO”, `CN(C)c1ccc(-c2cc[n+](C)cc2)s1` yielded a photoluminescence quantum yield of 0.003.
In the case of `Clc1ccc(/C=C/c2nc3ccccc3o2)cc1`, the photoluminescence quantum yield reads like this: (in C1CCCCC1) 0.14; (in CO) 0.02.
In the case of `CCCCOC(=O)c1ccccc1-c1c2ccc(=[N+](CC)CC)cc-2oc2cc(N(CC)CC)ccc12`, the photoluminescence quantum yield came to 0.36 (in CC#N), 0.71 (in CCO), 0.35 (in CN(C)C=O) and 0.3 (in O).
For the compound `COc1ccc2cc(C#Cc3ccc([N+](=O)[O-])cc3)ccc2c1`, the photoluminescence quantum yield turned out to be 0.025 (in C1CCOC1), 0.03 (in ClC(Cl)Cl) and 0.015 (in ClCCl).
Consider `C#Cc1ccc2cc(/C=C/C(=O)OCC)c(=O)oc2c1`, for which the photoluminescence quantum yield (in CCO) is 0.36.
`CCN1c2ccc(/C=N/Nc3ccccn3)cc2Sc2cc(/C=N/Nc3ccccn3)ccc21` yielded a photoluminescence quantum yield (in C1CCOC1) of 0.15, a photoluminescence quantum yield (in CS(C)=O) of 0.19, a photoluminescence quantum yield (in Cc1ccccc1) of 0.14 and a photoluminescence quantum yield (in ClCCl) of 0.37.
`Cc1cccn2c1cc1c3ccccc3nc(-c3ccco3)c12` returned a photoluminescence quantum yield (in CS(C)=O) of 0.42.
Under “in CO”, `C#CCOc1ccc(/C=C/C2=[N+]3C(=C(c4ccc(N(C)CC)cc4)c4c(C)cc(C)n4[B-]3(F)F)C(C)=C2)cc1` came in with a photoluminescence quantum yield of 0.84.
As for `CN(C)c1ccc(/C=C/c2cc(/C=C/c3ccc(N(C)C)cc3)nc(/C=C/c3ccccc3)n2)cc1`, the photoluminescence quantum yield (in ClCCl) worked out at 0.72.
With `CCCCCCCCCCCCC(CCCCCCCCCC)Cn1c2cc(/C=C/C=C(C#N)C#N)c3cccc4c5cccc6c(/C=C/C=C(C#N)C#N)cc1c(c65)c2c34` (configuration not stated), the photoluminescence quantum yield by setting is: (in C1CCCCC1) 0.044; (in CC#N) 0.061; (in Cc1ccccc1) 0.073; (in ClCCl) 0.067.
For `CCCCOC(=O)c1cc(Oc2ccc(C(C)(C)C)cc2)c2c3c(Cl)cc4c5c(cc(Cl)c(c6c(Oc7ccc(C(C)(C)C)cc7)cc(C(=O)OCCCC)c1c26)c53)C(=O)N(c1c(C(C)C)cccc1C(C)C)C4=O`, the photoluminescence quantum yield (in Cc1ccccc1) turned out to be 0.79.
Take `CCCc1c(C(=O)c2ccc3c4c(cccc24)-c2cccc4c2C3CC=C4)c2ccc3cccc4c5cccc6ccc1c(c65)c2c34` (configuration not stated): under “in ClCCl”, the photoluminescence quantum yield turned out to be 0.058.
Turning to `Cn1c(=O)c2c(ncn2C)n(C)c1=O`, the photoluminescence quantum yield (in O) is 0.
Consider `COc1ccc(-c2cc3c(s2)c(-c2ccccc2)cc(=O)n3C)cc1`, for which the photoluminescence quantum yield was determined as 0.42 (in CC#N) and 0.46 (in ClCCl).
Consider `Cc1ccc(C2=[N+]3C(=Cc4c(C)cc(C)n4[B-]3(F)F)c3ccccc32)[nH]1`, for which the photoluminescence quantum yield by setting is: (in C1CCOC1) 0.82; (in CC#N) 0.84; (in CCCCCC) 0.91; (in CO) 0.83; (in Cc1ccccc1) 0.83; (in ClCCl) 0.89.
For the setting “in C1CCCCC1”, `CCCC1(CCC)c2cc(C#N)ccc2-c2ccc(C#N)cc21` yielded a photoluminescence quantum yield of 0.32.
Compound `COc1cc2c(cc1OC)C1=C[C@H](c3ccccc3)C3(C(C#N)=C(C#N)N1CC2)c1cc(Br)ccc1-c1ccc(Br)cc13` came in with a photoluminescence quantum yield (in ClCCl) of 0.00059.
`C=C(C)C(CN1C(=O)c2cccc3c2c(cc2oc(C)nc23)C1=O)OO` (configuration not stated) displayed a photoluminescence quantum yield (in CCO) of 0.096.
In turn, `COc1ccccc1-c1nc2c3cccnc3c3ncccc3c2n1-c1ccccc1` came in with a photoluminescence quantum yield (in Cc1ccccc1) of 0.064.
Compound `CC1(C)CC(/C=C/c2ccc(-n3c4ccccc4c4ccccc43)cc2)=CC(=C(C#N)C#N)C1` returned a photoluminescence quantum yield (in CCO) of 0.005.
Take `COc1ccc(-c2nc(-c3ccccc3OC)[nH]c2-c2ccc(OC)cc2)cc1`: the photoluminescence quantum yield (in CO) amounted to 0.27.
On to `c1ccc2c(c1)Sc1ccc(-n3c4ccccc4c4ccccc43)cc1S2`, for which the photoluminescence quantum yield reads like this: (in CC1CCCCC1) 0.04; (in c1cc(-c2cccc(-n3c4ccccc4c4ccccc43)c2)cc(-n2c3ccccc3c3ccccc32)c1) 0.1.
With `CCN(CC)c1ccc2cc(/C(Cl)=C/C=C/C(=C(C#N)C#N)c3ccc4c(c3)c3ccccc3n4CC)c(=O)oc2c1`, the photoluminescence quantum yield was determined as 0.019 (in CC(C)=O); 0.052 (in CCOC(C)=O); 0.042 (in CN(C)C=O); 0.018 (in CS(C)=O); 0.091 (in Cc1ccccc1); 0.096 (in ClCCl).
Consider `COc1cc(/C=C/c2cc(OC)c(-c3nc(-c4ccccc4)c(-c4ccccc4)[nH]3)cc2OC)c(OC)cc1/C=C/c1cc(OC)c(-c2nc(-c3ccccc3)c(-c3ccccc3)[nH]2)cc1OC`, for which the photoluminescence quantum yield is, setting by setting: (in C1CCOC1) 0.54; (in CC#N) 0.24; (in CN(C)C=O) 0.42; (in Cc1ccccc1) 0.63.
As for `CC1(C)C(/C=C/C=C/C=C/C=C2/N(CCCCCC(=O)O)c3ccc(S(=O)(=O)[O-])cc3C2(C)C)=[N+](CCCCCC(=O)O)c2ccc(S(=O)(=O)[O-])cc21`, the photoluminescence quantum yield was determined as 0.62 (in CO) and 0.28 (in O).
Regarding `Cc1ccc2ccc3cccc4ccc1c2c34`, the photoluminescence quantum yield runs as follows: (in CCCCCC) 0.34; (in CO) 0.28; (in ClCCl) 0.45.
For `CCC1(CC)c2ccccc2-c2ccc(C#Cc3cc(C#Cc4ccc5c(c4)C(CC)(CC)c4ccccc4-5)c4ccc5c(C#Cc6ccc7c(c6)C(CC)(CC)c6ccccc6-7)cc(C#Cc6ccc7c(c6)C(CC)(CC)c6ccccc6-7)c6ccc3c4c65)cc21`, the photoluminescence quantum yield (in Cc1ccccc1) came out at 0.64.
Turning to `Clc1ccc(/C=C/c2nc3ccccc3s2)cc1`, the photoluminescence quantum yield (in C1CCCCC1) worked out at 0.04 and the photoluminescence quantum yield (in CO) was 0.01.
